For ten molecules, GI50 results are on record in patent publication US20240246940A1, “HETEROARYL DERIVATIVE COMPOUND AND USE THEREOF” (VORONOI INC., priority 2021, published 2024).

SMILES strings stand for the structures. Some results are limits rather than exact numbers.

The test system of test [1] is BT-474 cells (HER2 overexpressing cell line). Nature of the test: BT-474 cell proliferation inhibitory activity (CellTiter-Glo, 120 hours). The class given is cell-based. The note with it: Homo sapiens. The procedure: To evaluate the cell proliferation inhibitory activity of the compound according to the present invention on HER2 and EGFR kinases, the following method was performed using HER2 overexpressing cell lines (SK-BR-3, BT-474, and N-87) and EGFR expressing cell line (HaCaT).
McCOY'S 5A supplemented with 10% FBS was used for SK-BR-3 cells, RPMI-1640 medium supplemented with 20% FBS was used for BT-474 cancer cells, and RPMI-1640 medium supplemented with 10% FBS was used for N-87 cancer cells. DMEM supplemented with 10% FBS was used for HaCaT cells.
For SK-BR-3 cells, 5000 cells were aliquoted into each well of a white clear bottom 96 well plate (Corning) 48 hours before treatment with the compounds of Examples. For BT-474 cells, 5000 cells were aliquoted into each well of a white clear bottom 96 well plate (Corning) 48 hours before treatment with the compounds of Examples. For N-87 cells, 5000 cells were aliquoted into each well of a white clear bottom 96 well plate (Corning) 24 hours before treatment with the compounds of Examples. For HaCaT cells, 3000 cells were aliquoted into each well of a white clear bottom 96 well plate (Corning) 24 hours before treatment with the compounds of Examples. For SK-BR-3 cells and BT-474 cells, the compounds of Examples were diluted in dimethyl sulfoxide (three-fold dilution, a total of 11 concentrations) and injected each in an amount of 1 μl to a final concentration of 0.2 nM to 10 μM. For N-87 cells, the compounds of Examples were diluted in dimethyl sulfoxide (five-fold dilution, a total of 11 concentrations) and injected each in an amount of 0.5 μl to a final concentration of […] to 5 μM. For HaCaT cells, the compounds of Examples were diluted in dimethyl sulfoxide (three-fold dilution, a total of 11 concentrations) and injected each in an amount of 0.5 μl to a final concentration of 0.8 nM to 45 μM. For the measurement of living cells, the cells were stored at room temperature for 10 minutes using CellTiter-Glo cell viability reagent (Promega) after a certain period of time (SK-BR-3: 120 hours, BT-474: 120 hours, N-87: 72 hours, and HaCaT: 72 hours) post treatment with the compounds of Examples, and the luminescence intensity thereof was measured using a reader (SynergyNeo, Biotek). Each test was repeated three times.
The result values were calculated as a cell growth rate (%) compared to those of the control group. A graph was created using the GraphPad Prism version 5.0 program, and GI50 values were calculated.

Test [2] deals with HaCaT cells (EGFR expressing cell line). Nature of the test: HaCaT cell proliferation inhibitory activity (CellTiter-Glo, 72 hours). The test is classed as cell-based. The settings on record: Homo sapiens. An outline of the steps:
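Plate cells (HaCaT 3000/well, others 5000/well), then allow 24 h or 48 h before dosing, with the longer wait for SK-BR-3 and BT-474. Add compounds as 3-fold series, or 5-fold for N-87, at 11 concentrations each. Read viability luminescence, compute growth % against control and derive GI50.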
(ATP-based viability assays read luminescence as a measure of living cells.)

For orientation: GI50 means the concentration at which growth is held to half of that of the control. As for `C=CC(=O)N1CCC(Oc2cc3c(Nc4cc(-c5cccc(OC(F)(F)F)c5)ccc4OC)ncnc3cc2OC)CC1` [Example 211, 1-(4-((7-methoxy-4-((4-methoxy-3′-(trifluoro-methoxy)-[1,1′-biphenyl]-3-yl)amino)quinazolin-6-yl)oxy)piperidin-1-yl)prop-2-en-1-one], the values for the GI50 in test [1] and in test [2] were not above 150 nM and 150 to 1000 nM, respectively.
Taken in the same sequence, the figures for `C=CC(=O)N1CCC(Oc2cc3c(Nc4cc(-c5cc(OC)c(F)cc5F)ccc4OC)ncnc3cc2OC)CC1` [Example 213, 1-(4-((4-((2′,4′-difluoro-4,5′-dimethoxy-[1,1′-biphenyl]-3-yl)amino)-7-methoxy-quinazolin-6-yl)oxy)piperidin-1-yl)prop-2-en-1-one] were not above 150 nM and not above 150 nM.
As to `C=CC(=O)N1CCC(Oc2cc3c(Nc4cc(-c5ccc(F)c(OCC(F)(F)F)c5)ccc4OC)ncnc3cc2OC)CC1` [Example 214, 1-(4-((4-((4′-fluoro-4-methoxy-3′-(2,2,2-trifluoroethoxy)-[1,1′-biphenyl]-3-yl)amino)-7-methoxy-quinazolin-6-yl)oxy)piperidin-1-yl)prop-2-en-1-one], the GI50 was not above 150 nM in test [1] and more than 1000 nM in test [2].
For the molecule `C=CC(=O)N1CCC(Oc2cc3c(Nc4cc(C5=CCOCC5)ccc4OC)ncnc3cc2OC)CC1` [Example 216, 1-(4-((4-((5-(3,6-dihydro-2H-pyran-4-yl)-2-methoxyphenyl)amino)-7-methoxy-quinazolin-6-yl)oxy)piperidin-1-yl)prop-2-en-1-one], the GI50 in test [1] and in test [2] was 150 to 1000 nM in each case.
Consider `C=CC(=O)N1CC2(CC(Oc3cc4c(Nc5cc(-c6ccco6)ccc5OC)ncnc4cc3OC)C2)C1` [Example 218, 1-(6-((4-((5-(furan-2-yl)-2-methoxyphenyl)amino)-7-methoxy-quinazolin-6-yl)oxy)-2-azaspiro[3.3]heptan-2-yl)prop-2-en-1-one], for which the GI50 in test [1] is more than 1000 nM; in test [2] it was 150 to 1000 nM.
With `C=CC(=O)N1CCC2(CC(Oc3cc4c(Nc5cc(-c6ccco6)ccc5OC)ncnc4cc3OC)C2)C1` (centres unmarked) [Example 220, 1-(2-((4-((5-(furan-2-yl)-2-methoxyphenyl)amino)-7-methoxy-quinazolin-6-yl)oxy)-6-azaspiro[3.4]octan-6-yl)prop-2-en-1-one], the GI50 in test [1] and in test [2] was 150 to 1000 nM each time.
As to `C=CC(=O)N1CC2(CCC(Oc3cc4c(Nc5cc(-c6ccco6)ccc5OC)ncnc4cc3OC)C2)C1` (centres unmarked) [Example 221, 1-(6-((4-((5-(furan-2-yl)-2-methoxyphenyl)amino)-7-methoxy-quinazolin-6-yl)oxy)-2-azaspiro[3.4]octan-2-yl)prop-2-en-1-one], the GI50 in test [1] is more than 1000 nM; in test [2], 150 to 1000 nM.
The matching figures for `C=CC(=O)N1CCC(Oc2cc3c(Nc4cc(-c5ccc(F)cc5F)ccc4OC)ncnc3cc2OCC)CC1` [Example 239, 1-(4-((4-((2′,4′-difluoro-4-methoxy-[1,1′-biphenyl]-3-yl)amino)-7-ethoxyquinazolin-6-yl)oxy)piperidin-1-yl)prop-2-en-1-one]: not above 150 nM and not above 150 nM.
On to `C=CC(=O)N1CCC(Nc2cc3c(Nc4cc(-c5ccc(F)cc5F)ccc4OC)ncnc3cc2OC(F)F)CC1` [Example 297, 1-(4-((4-((2′,4′-difluoro-4-methoxy-[1,1′-biphenyl]-3-yl)amino)-7-(difluoromethoxy)quinazolin-6-yl)amino)piperidin-1-yl)prop-2-en-1-one], for which the GI50 in test [1] and in test [2] was not above 150 nM each time.
Take `COc1cc2ncnc(Nc3cc(-c4ccc(F)cc4F)c(F)cc3OC)c2cc1NC(=O)/C=C/[C@H]1CCCN1C` [Example 308, (R,E)-N-(7-methoxy-4-((2′,4′,6-trifluoro-4-methoxy-[1,1′-biphenyl]-3-yl)amino)quinazolin-6-yl)-3-(1-methylpyrrolidin-2-yl)acrylamide]: the GI50 in test [1] and in test [2] was not above 150 nM throughout.
